Assay results reported in patent US10597378B2 (priority 2017, dated 2020).
Like-named read-outs stand apart in the source and are kept apart here.

Biological target: MOR (Homo sapiens, UniProt P35372)
Assay: cell-based
Design: expressed in transfected cells; host or cells: CHO-K1/MOR/Ga15 cells
Conditions: for FLIPR Ca2+ AUC: area under the [Ca2+]i fluorescence response curve, up to 90 s
Description: In an exemplary in vitro assay for identifying MOR agonists, cells that express a MOR are treated with a test compound in a cellular calcium fluorescent assay and calcium fluorescence intensity is then measured to determine whether the MOR is activated. A test compound is identified as a MOR agonist if the MOR is activated.
EC50 herein refers to the concentration of a compound that induces a response halfway between the baseline and the maximum after a specified exposure time. AUC refers to the area under the response curve, an indication of the compound's capability of activating a MOR.
One day before the assay, CORNING® black with clear flat bottom 96-well assay plates were coated with a 0.1 mg/mL Poly-L-Lysine solution. CHO-K1/MOR/Ga15 cells were suspended in the F12 medium and plated at a density of about 8×10^4 cells/well in […] medium. Cells were incubated in a humidified atmosphere of 10% CO2 at 37° C. overnight so as to reach an 80-90% confluent cell monolayer before the assay. On the day of the assay, 150 μL medium/well was removed from plate. […] Compounds and other reagents were dissolved in the assay buffer. […] The [Ca^2+]i fluorescence was measured up to 90 s after agonist injection.

[1] = CHO-K1/MOR/Ga15 cells, read-out: FLIPR Ca2+ EC50

Chain of MOR (P35372 whole entry): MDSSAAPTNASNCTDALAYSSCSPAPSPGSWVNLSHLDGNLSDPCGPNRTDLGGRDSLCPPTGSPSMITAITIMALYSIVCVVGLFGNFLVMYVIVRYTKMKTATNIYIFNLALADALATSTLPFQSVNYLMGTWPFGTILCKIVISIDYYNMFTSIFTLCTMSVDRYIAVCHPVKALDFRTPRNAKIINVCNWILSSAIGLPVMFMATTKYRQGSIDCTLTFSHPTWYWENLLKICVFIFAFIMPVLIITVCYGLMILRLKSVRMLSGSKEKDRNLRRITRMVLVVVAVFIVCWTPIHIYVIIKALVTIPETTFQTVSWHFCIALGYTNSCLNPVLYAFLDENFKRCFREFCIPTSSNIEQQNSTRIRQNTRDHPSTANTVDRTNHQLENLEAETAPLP

| Compound | EC50 [1] | FLIPR Ca2+ AUC | EC50 | EC50 (read-out: FLIPR Ca2+ EC50) |
| --- | --- | --- | --- | --- |
| O=C(NCC1NCCc2ccccc21)N1CCCC1 (stereo not shown) [Compound 37, N-(1,2,3,4-Tetrahydro-1-isoquinolinylmethyl)-1-pyrrolidinecarboxamide] | 4020 nM | 3480 |  |  |
| Cc1ccc(C(=O)NCC2c3ccccc3CCN2CCCl)cc1 (stereo not shown) [Compound 64, N-{[2-(2-Chloroethyl)-1,2,3,4-tetrahydro-1-isoquinolinyl]methyl}-4-methylbenzamide] | 30 nM |  |  |  |
| Cc1ccc(C(=O)NCC2NCCc3ccccc32)c(C)c1 (stereo not shown) [Compound 60, 2,4-Dimethyl-N-(1,2,3,4-tetrahydro-1-isoquinolinylmethyl)benzamide] | 660 nM | 13375 |  |  |
| O=C(NCC1NCCc2ccccc21)C1CCC1 (stereo not shown) [Compound 44, N-(1,2,3,4-Tetrahydro-1-isoquinolinylmethyl)cyclobutanecarboxamide] | 6800 nM | 3646 |  |  |
| O=C(NCC1NCCc2ccccc21)c1cccc(Cl)c1 (stereo not shown) [Compound 53, 3-Chloro-N-(1,2,3,4-tetrahydro-1-isoquinolinylmethyl)benzamide] | 380 nM | 13149 |  |  |
| O=C(NCC1NCCc2ccccc21)c1ccccc1OC(F)(F)F (stereo not shown) [Compound 56, N-(1,2,3,4-Tetrahydro-1-isoquinolinylmethyl)-2-(trifluoromethoxy)benzamide] | 3310 nM | 7855 |  |  |
| O=C(NCC1c2ccccc2CCN1S(=O)(=O)c1ccc(Cl)cc1)C1CCCCC1 (stereo not shown) [Compound 17, N-({2-[(4-Chlorophenyl)sulfonyl]-1,2,3,4-tetrahydro-1-isoquinolinyl}methyl)cyclohexanecarboxamide] |  | 6144 | 5970 nM |  |
| O=C(NCC1c2ccccc2CCN1S(=O)(=O)c1ccc(Br)cc1OC(F)(F)F)C1CCC1 (stereo not shown) [Compound 27, N-[(2-{[4-Bromo-2-(trifluoromethoxy)phenyl]sulfonyl}-1,2,3,4-tetrahydro-1-isoquinolinyl)methyl]cyclobutanecarboxamide] | 1340 nM | 13461 |  |  |
| O=C(NCC1c2ccccc2CCN1S(=O)(=O)c1ccc(Br)cc1F)C1CCCCC1 (stereo not shown) [Compound 12, N-({2-[ (4-Bromo-2-fluorophenyl)sulfonyl]-1,2,3,4-tetrahydro-1-isoquinolinyl}methyl)cyclohexanecarboxamide] | 9610 nM | 7271 |  |  |
| O=C(NCC1c2ccccc2CCN1S(=O)(=O)c1ccc(Br)cc1Cl)C1CCCCC1 (stereo not shown) [Compound 11, N-({2-[(4-Bromo-2-chlorophenyl)sulfonyl]-1,2,3,4-tetrahydro-1-isoquinolinyl}methyl)cyclohexanecarboxamide] |  | 7597 | 5610 nM |  |
| Cc1ccc(C(=O)NCC2NCCc3ccccc32)cc1C (stereo not shown) [Compound 58, 3,4-Dimethyl-N-(1,2,3,4-tetrahydro-1-isoquinolinylmethyl)benzamide] |  |  |  | 120 nM |
| O=C(NCC1c2ccccc2CCN1S(=O)(=O)c1ccc(Br)cc1)C1CCCCC1 (stereo not shown) [Compound 9, N-({2-[(4-Bromophenyl)sulfonyl]-1,2,3,4-tetrahydro-1-isoquinolinyl}methyl)cyclohexanecarboxamide] | 8820 nM | 6103 |  |  |
| CC1CCC(C(=O)NCC2c3ccccc3CCN2S(=O)(=O)c2ccc(Br)cc2OC(F)(F)F)CC1 (stereo not shown) [Compound 20, N-[(2-{[4-Bromo-2-(trifluoromethoxy)phenyl]sulfonyl}-1,2,3,4-tetrahydro-1-isoquinolinyl)methyl]-4-methylcyclohexanecarboxamide] | 970 nM |  |  |  |
| COc1ccccc1S(=O)(=O)N1CCc2ccccc2C1CNC(=O)C1CCCCC1 (stereo not shown) [Compound 14, N-({2-[(2-Methoxyphenyl)sulfonyl]-1,2,3,4-tetrahydro-1-isoquinolinyl}methyl)cyclohexanecarboxamide] | 22500 nM | 3327 |  |  |
| COC1CCC(C(=O)NCC2NCCc3ccccc32)CC1 (stereo not shown) [Compound 42, 4-Methoxy-N-(1,2,3,4-tetrahydro-1-isoquinolinylmethyl)cyclohexanecarboxamide] | 6600 nM | 5538 |  |  |
| COc1cccc(C(=O)NCC2NCCc3ccccc32)c1 (stereo not shown) [Compound 51, 3-Methoxy-N-(1,2,3,4-tetrahydro-1-isoquinolinylmethyl)benzamide] | 860 nM | 13302 |  |  |
| O=C(NCC1c2ccccc2CCN1S(=O)(=O)c1ccc(Br)cc1OC(F)(F)F)C1CCCCC1 (stereo not shown) [Compound 6, N-[(2-{[4-Bromo-2-(trifluoromethoxy)phenyl]sulfonyl}-1,2,3,4-tetrahydro-1-isoquinolinyl)methyl]cyclohexanecarboxamide] | 1120 nM | 15139 |  |  |
| O=C(NCC1c2ccccc2CCN1S(=O)(=O)c1ccc(Br)cc1OC(F)(F)F)C1CC1 (stereo not shown) [Compound 28, N-[(2-{[4-Bromo-2-(trifluoromethoxy)phenyl]sulfonyl}-1,2,3,4-tetrahydro-1-isoquinolinyl)methyl]cyclopropanecarboxamide] | 5030 nM | 11880 |  |  |

| Compound | EC50 [1] | FLIPR Ca2+ AUC | EC50 | EC50 (read-out: FLIPR Ca2+ EC50) |
| --- | --- | --- | --- | --- |
| Cc1ccc(C(=O)NCC2c3ccccc3CCN2C)cc1C (stereo not shown) [Compound 66, 3,4-Dimethyl-N-[(2-methyl-1,2,3,4-tetrahydro-1-isoquinolinyl)methyl]benzamide] | 10 nM | 17393 |  |  |
| O=C(NCC1c2ccccc2CCN1S(=O)(=O)c1ccc(F)cc1C(F)(F)F)C1CCCCC1 (stereo not shown) [Compound 15, N-[(2-{[4-Fluoro-2-(trifluoromethyl)phenyl]sulfonyl}-1,2,3,4-tetrahydro-1-isoquinolinyl)methyl]cyclohexanecarboxamide] | 5880 nM | 5153 |  |  |
| CC1CCC(C(=O)NCC2NCCc3ccccc32)CC1 (stereo not shown) [Compound 39, 4-Methyl-N-(1,2,3,4-tetrahydro-1-isoquinolinylmethyl)cyclohexanecarboxamide] | 1530 nM | 12657 |  |  |
| O=C(NCC1c2ccccc2CCN1S(=O)(=O)c1ccc(Br)cc1OC(F)(F)F)c1ccccc1 (stereo not shown) [Compound 24, N-[(2-{[4-Bromo-2-(trifluoromethoxy)phenyl]sulfonyl}-1,2,3,4-tetrahydro-1-isoquinolinyl)methyl]benzamide] | 5620 nM | 9294 |  |  |
| COc1ccccc1C(=O)NCC1NCCc2ccccc21 (stereo not shown) [Compound 55, 2-Methoxy-N-(1,2,3,4-tetrahydro-1-isoquinolinylmethyl)benzamide] | 3310 nM | 4312 |  |  |
| Cc1ccc(C(=O)NCC2c3ccccc3CCN2CC(C)C)cc1 (stereo not shown) [Compound 63, 4-Methyl-N-{[2-(2-methylpropyl)-1,2,3,4-tetrahydro-1-isoquinolinyl]methyl}benzamide] | 110 nM | 18418 |  |  |
| CCCCN1CCc2ccccc2C1CNC(=O)c1ccc(C)cc1 (stereo not shown) [Compound 62, N-[(2-Butyl-1,2,3,4-tetrahydro-1-isoquinolinyl)methyl]-4-methylbenzamide] | 160 nM | 14669 |  |  |
| Cc1ccc(C(=O)NCC2c3ccccc3CCN2C)cc1 (stereo not shown) [Compound 61, 4-Methyl-N-[(2-methyl-1,2,3,4-tetrahydro-1-isoquinolinyl)methyl]benzamide] | 40 nM | 14757 |  |  |
| O=C(NCC1c2ccccc2CCN1S(=O)(=O)c1ccc(Br)cc1OC(F)(F)F)C1CCCC1 (stereo not shown) [Compound 21, N-[(2-{[4-Bromo-2-(trifluoromethoxy)phenyl]sulfonyl}-1,2,3,4-tetrahydro-1-isoquinolinyl)methyl]cyclopentanecarboxamide] | 810 nM |  |  |  |
| Cc1ccc(S(=O)(=O)N2CCc3ccccc3C2CNC(=O)C2CCCCC2)cc1 (stereo not shown) [Compound 18, N-({2-[(4-Methylphenyl)sulfonyl]-1,2,3,4-tetrahydro-1-isoquinolinyl}methyl)cyclohexanecarboxamide] |  | 6808 | 6440 nM |  |
| O=C(NCC1NCCc2ccccc21)C1CCCC1 (stereo not shown) [Compound 43, N-(1,2,3,4-Tetrahydro-1-isoquinolinylmethyl)cyclopentanecarboxamide] | 8910 nM | 5768 |  |  |
| O=C(NCC1NCCc2ccccc21)c1ccc(Cl)c(Cl)c1 (stereo not shown) [Compound 59, 3,4-Dichloro-N-(1,2,3,4-tetrahydro-1-isoquinolinylmethyl)benzamide] |  |  |  | 250 nM |
| Cc1cccc(C(=O)NCC2NCCc3ccccc32)c1 (stereo not shown) [Compound 54, 3-Methyl-N-(1,2,3,4-tetrahydro-1-isoquinolinylmethyl)benzamide] |  |  |  | 370 nM |
| O=C(NCC1NCCc2ccccc21)c1ccc(OC(F)(F)F)cc1 (stereo not shown) [Compound 47, N-(1,2,3,4-Tetrahydro-1-isoquinolinylmethyl)-4-(trifluoromethoxy)benzamide] |  |  |  | 370 nM |
| O=C(NCC1NCCc2ccccc21)c1ccc(F)cc1 (stereo not shown) [Compound 48, 4-Fluoro-N-(1,2,3,4-tetrahydro-1-isoquinolinylmethyl)benzamide] |  |  |  | 540 nM |
| O=C(NCC1NCCc2ccccc21)C1CCCCC1 (stereo not shown) [Compound 5, N-(1,2,3,4-Tetrahydro-1-isoquinolinylmethyl)cyclohexanecarboxamide] | 6380 nM | 6142 |  |  |
| COc1ccc(C(=O)NCC2NCCc3ccccc32)cc1 (stereo not shown) [Compound 46, 4-Methoxy-N-(1,2,3,4-tetrahydro-1-isoquinolinylmethyl)benzamide] |  |  |  | 370 nM |
